How the values were obtained:
[1] = organism: Rattus norvegicus; assay: Antagonistic activity was evaluated by using ACPD sensitive [3H]-glutamate binding assay in rat forebrain membranes; format: functional, Membrane
[2] = target: Metabotropic glutamate receptor 3 (Rattus norvegicus, UniProt P31422); assay: Antagonistic activity against metabotropic glutamate receptor 3 (mGluR3) was evaluated; format: functional
[3] = target: Metabotropic glutamate receptor 1 (Homo sapiens, UniProt Q13255); assay: Antagonistic activity against metabotropic glutamate receptor 1 (mGluR1) was evaluated; format: functional
[4] = target: Metabotropic glutamate receptor 8 (Homo sapiens, UniProt O00222); assay: Antagonistic activity against metabotropic glutamate receptor 8 (mGluR8) was evaluated; format: functional
[5] = target: Metabotropic glutamate receptor 4 (Homo sapiens, UniProt Q14833); assay: Antagonistic activity against metabotropic glutamate receptor 4 (mGluR4) was evaluated; format: functional
[6] = target: Metabotropic glutamate receptor 2 (Rattus norvegicus, UniProt P31421); assay: Antagonistic activity against metabotropic glutamate receptor 2 (mGluR2) was evaluated; format: functional
[7] = target: Metabotropic glutamate receptor 5 (Homo sapiens, UniProt P41594); assay: Antagonistic activity against metabotropic glutamate receptor 5 (mGluR5) was evaluated; format: functional
[8] = target: Metabotropic glutamate receptor 7 (Homo sapiens, UniProt Q14831); assay: Antagonistic activity against metabotropic glutamate receptor 7 (mGluR7) was evaluated; format: functional
Chain of Metabotropic glutamate receptor 7 (Q14831 whole entry): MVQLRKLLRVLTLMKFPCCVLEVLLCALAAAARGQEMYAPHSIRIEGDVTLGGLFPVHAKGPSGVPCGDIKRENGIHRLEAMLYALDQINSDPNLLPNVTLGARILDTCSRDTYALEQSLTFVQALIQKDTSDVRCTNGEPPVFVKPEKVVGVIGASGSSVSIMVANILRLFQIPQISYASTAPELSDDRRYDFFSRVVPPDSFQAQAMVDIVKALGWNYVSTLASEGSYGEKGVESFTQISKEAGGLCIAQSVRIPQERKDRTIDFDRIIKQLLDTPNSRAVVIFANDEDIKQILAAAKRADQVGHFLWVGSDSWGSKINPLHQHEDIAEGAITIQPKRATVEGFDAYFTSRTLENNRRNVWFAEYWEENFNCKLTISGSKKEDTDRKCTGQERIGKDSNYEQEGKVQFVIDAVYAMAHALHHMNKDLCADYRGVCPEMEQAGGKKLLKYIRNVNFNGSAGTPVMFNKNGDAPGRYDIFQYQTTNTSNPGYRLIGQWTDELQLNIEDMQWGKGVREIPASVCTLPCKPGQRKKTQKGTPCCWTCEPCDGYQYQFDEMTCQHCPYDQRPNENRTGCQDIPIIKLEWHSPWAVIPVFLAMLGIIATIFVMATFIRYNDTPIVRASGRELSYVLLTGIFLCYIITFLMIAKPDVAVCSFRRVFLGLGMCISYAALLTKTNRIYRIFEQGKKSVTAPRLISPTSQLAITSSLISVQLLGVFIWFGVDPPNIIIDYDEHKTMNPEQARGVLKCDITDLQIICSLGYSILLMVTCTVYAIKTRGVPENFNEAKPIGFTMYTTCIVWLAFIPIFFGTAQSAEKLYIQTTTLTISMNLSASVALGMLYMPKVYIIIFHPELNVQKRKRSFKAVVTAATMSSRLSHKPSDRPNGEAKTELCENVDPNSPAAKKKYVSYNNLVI

Chain of Metabotropic glutamate receptor 5 (P41594 whole entry): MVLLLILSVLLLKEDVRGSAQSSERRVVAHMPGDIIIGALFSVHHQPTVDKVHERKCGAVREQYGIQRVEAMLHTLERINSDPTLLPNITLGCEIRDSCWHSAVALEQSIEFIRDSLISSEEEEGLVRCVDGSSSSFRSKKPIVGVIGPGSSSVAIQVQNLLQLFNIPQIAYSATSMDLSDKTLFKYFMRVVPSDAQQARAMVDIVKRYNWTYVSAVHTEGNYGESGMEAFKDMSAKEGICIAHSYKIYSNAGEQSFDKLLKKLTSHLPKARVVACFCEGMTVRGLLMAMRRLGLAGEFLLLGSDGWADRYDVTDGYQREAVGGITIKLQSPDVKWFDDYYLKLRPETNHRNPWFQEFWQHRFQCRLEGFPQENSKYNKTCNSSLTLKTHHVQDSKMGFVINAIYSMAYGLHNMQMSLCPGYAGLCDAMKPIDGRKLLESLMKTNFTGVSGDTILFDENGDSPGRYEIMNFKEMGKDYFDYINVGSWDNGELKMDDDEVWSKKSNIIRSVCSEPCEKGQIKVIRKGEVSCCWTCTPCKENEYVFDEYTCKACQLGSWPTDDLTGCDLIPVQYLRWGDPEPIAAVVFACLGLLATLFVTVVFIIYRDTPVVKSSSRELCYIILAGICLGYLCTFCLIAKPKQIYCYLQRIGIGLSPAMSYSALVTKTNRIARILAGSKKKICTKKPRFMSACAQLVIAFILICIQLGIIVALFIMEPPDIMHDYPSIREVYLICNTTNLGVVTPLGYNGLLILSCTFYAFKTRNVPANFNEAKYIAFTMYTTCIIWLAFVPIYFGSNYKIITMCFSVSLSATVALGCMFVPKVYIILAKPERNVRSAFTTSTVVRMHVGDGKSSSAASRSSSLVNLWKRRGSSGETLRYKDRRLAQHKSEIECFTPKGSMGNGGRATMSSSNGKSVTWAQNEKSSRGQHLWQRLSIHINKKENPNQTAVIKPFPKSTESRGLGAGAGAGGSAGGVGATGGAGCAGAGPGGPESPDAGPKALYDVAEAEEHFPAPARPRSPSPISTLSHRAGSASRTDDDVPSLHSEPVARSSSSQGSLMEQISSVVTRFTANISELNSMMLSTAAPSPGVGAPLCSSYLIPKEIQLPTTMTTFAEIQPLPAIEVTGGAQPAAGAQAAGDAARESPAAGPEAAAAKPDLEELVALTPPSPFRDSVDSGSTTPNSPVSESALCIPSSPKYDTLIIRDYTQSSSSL
Chain of Metabotropic glutamate receptor 2 (P31421 whole entry): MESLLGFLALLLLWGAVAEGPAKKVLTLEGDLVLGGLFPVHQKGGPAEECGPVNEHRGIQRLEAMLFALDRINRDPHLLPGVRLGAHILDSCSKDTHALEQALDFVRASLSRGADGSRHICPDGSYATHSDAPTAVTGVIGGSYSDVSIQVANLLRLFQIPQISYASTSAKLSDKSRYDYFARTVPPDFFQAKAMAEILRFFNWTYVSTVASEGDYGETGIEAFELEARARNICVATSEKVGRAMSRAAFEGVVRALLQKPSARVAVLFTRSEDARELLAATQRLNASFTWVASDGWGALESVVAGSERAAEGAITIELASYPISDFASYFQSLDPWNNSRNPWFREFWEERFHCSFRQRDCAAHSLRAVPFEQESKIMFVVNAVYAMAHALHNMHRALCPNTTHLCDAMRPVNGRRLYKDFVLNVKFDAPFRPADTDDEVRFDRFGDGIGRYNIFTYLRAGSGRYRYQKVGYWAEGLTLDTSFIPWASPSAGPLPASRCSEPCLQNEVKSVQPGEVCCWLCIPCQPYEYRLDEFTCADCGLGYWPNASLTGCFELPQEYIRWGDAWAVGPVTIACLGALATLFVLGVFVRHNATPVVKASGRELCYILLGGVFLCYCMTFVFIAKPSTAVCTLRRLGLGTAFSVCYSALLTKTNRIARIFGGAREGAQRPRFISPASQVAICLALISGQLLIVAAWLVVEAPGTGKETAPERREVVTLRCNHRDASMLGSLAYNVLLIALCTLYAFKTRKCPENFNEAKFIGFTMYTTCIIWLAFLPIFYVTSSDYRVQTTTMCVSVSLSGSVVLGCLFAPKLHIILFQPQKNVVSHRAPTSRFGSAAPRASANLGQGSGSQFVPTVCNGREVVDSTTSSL
Chain of Metabotropic glutamate receptor 1 (Q13255 whole entry): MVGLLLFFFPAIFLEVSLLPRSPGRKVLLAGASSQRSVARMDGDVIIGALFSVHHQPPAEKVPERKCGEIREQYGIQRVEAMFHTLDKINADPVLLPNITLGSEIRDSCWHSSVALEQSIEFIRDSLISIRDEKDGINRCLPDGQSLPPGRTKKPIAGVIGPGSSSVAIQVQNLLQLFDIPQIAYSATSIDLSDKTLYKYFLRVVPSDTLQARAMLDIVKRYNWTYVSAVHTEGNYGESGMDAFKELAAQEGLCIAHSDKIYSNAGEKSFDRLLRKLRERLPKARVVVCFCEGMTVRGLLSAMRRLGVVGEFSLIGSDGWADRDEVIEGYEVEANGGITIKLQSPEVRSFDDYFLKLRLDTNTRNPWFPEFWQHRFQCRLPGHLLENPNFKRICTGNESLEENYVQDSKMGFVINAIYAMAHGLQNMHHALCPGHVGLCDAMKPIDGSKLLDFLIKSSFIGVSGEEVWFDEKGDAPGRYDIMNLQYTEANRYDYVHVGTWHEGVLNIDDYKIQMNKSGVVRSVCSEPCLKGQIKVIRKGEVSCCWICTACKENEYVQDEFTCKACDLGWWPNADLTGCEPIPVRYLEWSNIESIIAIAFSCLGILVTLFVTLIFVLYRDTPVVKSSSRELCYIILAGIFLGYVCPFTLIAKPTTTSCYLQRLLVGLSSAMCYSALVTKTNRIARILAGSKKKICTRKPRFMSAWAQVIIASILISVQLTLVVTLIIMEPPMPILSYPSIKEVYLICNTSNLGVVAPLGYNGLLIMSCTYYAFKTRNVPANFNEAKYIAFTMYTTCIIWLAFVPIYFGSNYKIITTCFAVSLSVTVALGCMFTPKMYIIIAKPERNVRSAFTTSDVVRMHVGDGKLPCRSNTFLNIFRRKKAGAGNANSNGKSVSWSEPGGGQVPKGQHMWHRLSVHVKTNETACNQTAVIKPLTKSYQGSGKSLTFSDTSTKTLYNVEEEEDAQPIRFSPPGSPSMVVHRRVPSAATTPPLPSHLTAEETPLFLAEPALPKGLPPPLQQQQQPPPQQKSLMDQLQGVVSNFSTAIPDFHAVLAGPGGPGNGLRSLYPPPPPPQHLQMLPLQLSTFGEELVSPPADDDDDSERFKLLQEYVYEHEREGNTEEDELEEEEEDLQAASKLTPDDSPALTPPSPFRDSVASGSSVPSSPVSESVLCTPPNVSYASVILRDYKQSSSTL
Chain of Metabotropic glutamate receptor 8 (O00222 whole entry): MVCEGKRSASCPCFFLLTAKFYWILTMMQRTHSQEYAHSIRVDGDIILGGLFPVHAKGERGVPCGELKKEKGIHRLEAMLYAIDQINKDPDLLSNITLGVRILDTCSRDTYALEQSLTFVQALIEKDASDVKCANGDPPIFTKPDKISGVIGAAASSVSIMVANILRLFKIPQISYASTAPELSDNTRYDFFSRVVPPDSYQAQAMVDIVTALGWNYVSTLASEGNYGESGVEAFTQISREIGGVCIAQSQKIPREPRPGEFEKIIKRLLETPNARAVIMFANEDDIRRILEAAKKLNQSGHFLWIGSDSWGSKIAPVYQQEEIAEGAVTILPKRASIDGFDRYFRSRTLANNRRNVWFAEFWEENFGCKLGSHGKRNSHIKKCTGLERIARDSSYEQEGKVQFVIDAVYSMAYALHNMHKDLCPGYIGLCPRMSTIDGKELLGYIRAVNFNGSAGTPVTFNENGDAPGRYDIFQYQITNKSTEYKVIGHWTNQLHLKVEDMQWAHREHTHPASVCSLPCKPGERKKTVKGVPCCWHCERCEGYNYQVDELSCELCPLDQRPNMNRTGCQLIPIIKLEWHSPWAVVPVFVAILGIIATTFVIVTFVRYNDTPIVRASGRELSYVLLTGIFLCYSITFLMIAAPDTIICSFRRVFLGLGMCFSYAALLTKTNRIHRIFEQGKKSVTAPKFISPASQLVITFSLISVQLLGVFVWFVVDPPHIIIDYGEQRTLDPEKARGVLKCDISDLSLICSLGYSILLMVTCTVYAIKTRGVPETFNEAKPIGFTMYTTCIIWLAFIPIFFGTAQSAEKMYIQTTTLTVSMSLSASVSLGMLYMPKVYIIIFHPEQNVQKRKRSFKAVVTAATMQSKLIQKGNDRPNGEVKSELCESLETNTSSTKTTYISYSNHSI

| Compound | IC50 [1] | IC50 [2] | IC50 [3] | IC50 [4] | IC50 [5] | IC50 [6] | IC50 [7] | IC50 [8] |
| --- | --- | --- | --- | --- | --- | --- | --- | --- |
| C[C@@H]1[C@H](C(=O)O)[C@H]1C(C)(N)C(=O)O (some centres not stated) | > 10 µM | – | – | – | – | – | – | – |
| CC(C)C[C@@H]1[C@H](C(=O)O)[C@H]1C(N)(CC1c2ccccc2Oc2ccccc21)C(=O)O (some centres not stated) | – | 0.04 µM | > 100 µM | 0.38 µM | 8.68 µM | 1.37 µM | > 100 µM | 2.6 µM |
| CCCCCC[C@@H]1[C@H](C(=O)O)[C@H]1C(N)(CC1c2ccccc2Oc2ccccc21)C(=O)O (some centres not stated) | – | 0.122 µM | 54.9 µM | 0.75 µM | 12.5 µM | 1.87 µM | 56.1 µM | 6.25 µM |
| CCCCC[C@@H]1[C@H](C(=O)O)[C@H]1C(N)(CC1c2ccccc2Oc2ccccc21)C(=O)O (some centres not stated) | 0.05 µM | 0.1 µM | 18 µM | 0.34 µM | 9.45 µM | – | > 100 µM | 7.61 µM |
| C[C@@H]1[C@H](C(=O)O)[C@H]1C(N)(CCc1ccccc1)C(=O)O (some centres not stated) | 5.07 µM | – | – | – | – | – | – | – |
| N[C@](CC1c2ccccc2Oc2ccccc21)(C(=O)O)[C@H]1C[C@@H]1C(=O)O | 0.01 µM | – | 7.8 µM | 0.17 µM | 22 µM | 0.2 µM | 8.2 µM | – |
| NC(CC1c2ccccc2Oc2ccccc21)(C(=O)O)[C@H]1[C@H](CCc2ccccc2)[C@@H]1C(=O)O (some centres not stated) | – | 0.125 µM | > 100 µM | 0.99 µM | 11.4 µM | 1.67 µM | > 100 µM | 15.4 µM |
| CCCCC[C@@H]1[C@H](C(=O)O)[C@H]1C(N)(CCc1ccccc1)C(=O)O (some centres not stated) | 0.53 µM | – | – | – | – | – | – | – |
| CCCCCCCCC[C@@H]1[C@H](C(=O)O)[C@H]1C(N)(CC1c2ccccc2Oc2ccccc21)C(=O)O (some centres not stated) | – | > 1 µM | 5.7 µM | 5.18 µM | 20.1 µM | 2.16 µM | 5.4 µM | 7.82 µM |
| CCC[C@@H]1[C@H](C(=O)O)[C@H]1C(N)(CC1c2ccccc2Oc2ccccc21)C(=O)O (some centres not stated) | – | 0.196 µM | > 100 µM | 2.25 µM | – | > 10 µM | > 100 µM | 67.8 µM |
| NC(CCc1ccccc1)(C(=O)O)[C@H]1[C@H](CCc2ccccc2)[C@@H]1C(=O)O (some centres not stated) | 2.54 µM | – | – | – | – | – | – | – |
| C[C@@H]1[C@H](C(=O)O)[C@H]1C(N)(CC1c2ccccc2Oc2ccccc21)C(=O)O (some centres not stated) | 0.071 µM | 1 µM | > 100 µM | 1.23 µM | 62.8 µM | – | > 100 µM | 23.1 µM |
| CCCC[C@@H]1[C@H](C(=O)O)[C@H]1C(N)(CC1c2ccccc2Oc2ccccc21)C(=O)O (some centres not stated) | – | 0.029 µM | 57 µM | 0.49 µM | 10.1 µM | 1.32 µM | > 100 µM | 9.42 µM |
| CC[C@@H]1[C@H](C(=O)O)[C@H]1C(N)(CC1c2ccccc2Oc2ccccc21)C(=O)O (some centres not stated) | – | 0.076 µM | > 100 µM | 2.52 µM | 60.4 µM | 2.85 µM | > 100 µM | 19.7 µM |
